Measured values as given in patent publication US20110045101A1, “FUNGICIDAL SUBSTITUTED AZOLES” (E.I. Du Pont De Nemours and Company, priority 2009, published 2011).
Marks after values point to notes of the source that are not given here.

Experiments:
Format in all cases: in vivo
Settings in all cases: 100 = 100% disease control
[1] = system: Erysiphe graminis f. sp. tritici; assay: Test J: wheat powdery mildew on wheat seedlings, sprayed the day before inoculation, visual disease rating
Summary of the method: (§1)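 Test rate was 200 ppm, sprayed to run-off and equal to 500 g/ha, or 40 ppm where marked. The compound was first taken up in acetone at 3% of final volume and suspended in acetone/purified water (50/50) containing 250 ppm Trem® 014.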

Septoria tritici = assay: Test G: wheat leaf blotch on wheat seedlings, sprayed the day before inoculation, visual disease rating
Summary of the method: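 Compounds dissolved in acetone (3% of final volume), then suspended in 50/50 acetone/water with 250 ppm Trem® 014 and sprayed to run-off on seedlings at 200 ppm (≈500 g/ha) or 40 ppm where marked. Inoculation with spores followed next day; visual rating after 48 h saturated at 24° C plus 19 days at 20° C.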

[2] = system: Puccinia recondita f. sp. tritici; assay: Test I: wheat leaf rust on wheat seedlings, sprayed the day before inoculation, visual disease rating
Summary of the method: as §1

Alternaria solani = assay: Test D: tomato early blight, sprayed the day before inoculation, visual disease rating
Summary of the method: as §1

[3] = system: Puccinia recondita f. sp. tritici; assay: Test H: wheat leaf rust, test suspension sprayed after inoculation of wheat seedlings, visual disease rating
Summary of the method: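 Wheat seedlings inoculated with P. recondita spores, held 24 h saturated at 20 °C, then 2 days in growth chamber at 20 °C; compound suspension (acetone/water with Trem 014) sprayed to run-off afterwards. Rated visually; 200 ppm (≈500 g/ha) unless marked *, which denotes 40 ppm.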

Botrytis cinerea = assay: Test C: tomato Botrytis on tomato seedlings, sprayed the day before inoculation, visual disease rating
Summary of the method: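 Each compound is first taken up in acetone at 3% of the final volume and then brought to the desired ppm in a 50:50 acetone–water mix with 250 ppm surfactant (polyhydric alcohol esters). Tomato seedlings receive the suspension to run-off, normally at 200 ppm, occasionally 40 ppm.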

Septoria nodorum = assay: Test F: wheat glume blotch on wheat seedlings, sprayed the day before inoculation, visual disease rating
Summary of the method: as §1

[4] = 200 ppm, 0 = no control relative to controls

Structure (SMILES) | Test J disease control rating [1, 4] [%] | Test G disease control rating (Septoria tritici; [4]) [%] | Test I disease control rating [2, 4] [%] | Test D disease control rating (Alternaria solani; [4]) [%] | Test H disease control rating [3, 4] [%] | Test C disease control rating (Botrytis cinerea; [4]) [%] | Test F disease control rating (Septoria nodorum; [4]) [%] | Test J disease control rating ([1]; 40 ppm (marked *)) | Test G disease control rating (Septoria tritici; 40 ppm (marked *)) | Test I disease control rating ([2]; 40 ppm (marked *)) | Test D disease control rating (Alternaria solani; 40 ppm (marked *)) | Test H disease control rating ([3]; 40 ppm (marked *)) | Test C disease control rating (Botrytis cinerea; 40 ppm (marked *)) | Test F disease control rating (Septoria nodorum; 40 ppm (marked *))
COc1cc(F)c(-c2c(Cl)nc(Cl)n2-c2ccc(C(F)(F)F)nc2)c(F)c1 [compound 488] | 100 | 93 | 100 | 100 | 41 | 99 | 100 | – | – | – | – | – | – | –
Cc1nc(C)n(-c2ccc(Cl)c(F)c2)c1-c1c(F)ccc(F)c1Cl [compound 489] | – | – | – | – | – | – | – | 100* % | 93* % | 100* % | 98* % | 0* % | 96* % | 0* %
Cc1ccc(-n2c(C)nc(C)c2-c2c(F)ccc(F)c2F)cc1 [compound 490] | – | – | – | – | – | – | – | 100* % | 87* % | 76* % | 99* % | 0* % | 97* % | 0* %
Cc1nc(C)n(-c2ccc(F)cc2)c1-c1c(F)cc(F)cc1F [compound 491] | – | – | – | – | – | – | – | 0* % | 91* % | 0* % | 99* % | 0* % | 92* % | 0* %
Cc1nc(Cl)n(-c2ccc(F)cc2)c1-c1c(F)cc(F)cc1F [compound 492] | – | – | – | – | – | – | – | 0* % | 82* % | 0* % | 100* % | 0* % | 94* % | 0* %
Cc1ccc(-n2c(C)nc(C)c2-c2c(F)ccc(F)c2Cl)cc1 [compound 493] | – | – | – | – | – | – | – | 99* % | 93* % | 97* % | 99* % | 0* % | 96* % | 0* %
Cc1nc(Cl)n(-c2ccc(Cl)c(F)c2)c1-c1c(F)ccc(F)c1Cl [compound 494] | – | – | – | – | – | – | – | 99* % | 89* % | 99* % | 99* % | 0* % | 89* % | 0* %
Cc1ccc(-n2c(Cl)nc(C)c2-c2c(F)ccc(F)c2Cl)cc1 [compound 495] | – | – | – | – | – | – | – | 100* % | 31* % | 99* % | 99* % | 0* % | 97* % | 0* %
Cc1ccc(-n2c(Cl)nc(C)c2-c2c(F)ccc(F)c2F)cc1 [compound 496] | – | – | – | – | – | – | – | 97* % | 6* % | 0* % | 99* % | 0* % | 93* % | 0* %
COc1cc(F)c(-c2c(Cl)ncn2-c2cccc(Cl)c2)c(F)c1 [compound 497] | 100 | 97 | 100 | 99 | 0 | 97 | 100 | – | – | – | – | – | – | –
COc1cc(F)c(-c2c(Cl)ncn2-c2ccc(F)c(F)c2)c(F)c1 [compound 498] | 100 | 95 | 100 | 100 | 0 | 99 | 95 | – | – | – | – | – | – | –
COc1cc(F)c(-c2c(Cl)nc(C)n2-c2ccc(F)c(F)c2)c(F)c1 [compound 499] | 100 | 93 | 100 | 100 | 100 | 99 | 100 | – | – | – | – | – | – | –
COc1cc(F)c(-c2c(Cl)nc(C)n2-c2cccc(Cl)c2)c(F)c1 [compound 500] | 100 | 94 | 100 | 100 | 98 | 98 | 100 | – | – | – | – | – | – | –
COc1ccc(F)c(-c2c(Cl)nc(Br)n2-c2ccc(Cl)cc2)c1Cl [compound 501] | 99 | 95 | 67 | 99 | 0 | 98 | 98 | – | – | – | – | – | – | –
COc1cc(F)c(-c2c(Cl)nc(Cl)n2-c2ccc(C)c(Cl)c2)c(F)c1 [compound 502] | – | – | – | – | – | – | – | 100* % | 93* % | 98* % | 92* % | 0* % | 90* % | 60* %
Cc1nc(Cl)n(-c2ccc(F)cc2Cl)c1-c1ccc(Cl)cc1 [compound 503] | 100 | 96 | 100 | 99 | 0 | 99 | 99 | – | – | – | – | – | – | –
COc1cc(F)c(-c2c(Br)ncn2-c2ccc(F)cc2)c(F)c1 [compound 506] | 99 | 99 | 100 | 100 | 78 | 100 | 92 | – | – | – | – | – | – | –
Fc1ccc(-n2cnc(Br)c2-c2c(F)cc(F)cc2F)cc1 [compound 507] | 98 | 88 | 100 | 95 | 0 | 100 | 0 | – | – | – | – | – | – | –
Fc1ccc(-n2cnc(Br)c2-c2c(F)ccc(F)c2Cl)cc1 [compound 508] | 99 | 94 | 99 | 100 | 78 | 100 | 0 | – | – | – | – | – | – | –
COc1ccc(F)c(-c2c(Br)nc(Cl)n2-c2ccc(Cl)cc2)c1F [compound 510] | 100 | 99 | 98 | 100 | 9 | 99 | 100 | – | – | – | – | – | – | –
COc1ccc(F)c(-c2c(Br)nc(Br)n2-c2ccc(C)cc2)c1F [compound 511] | 100 | 99 | 99 | 99 | 0 | 99 | 99 | – | – | – | – | – | – | –
COc1ccc(Cl)c(-c2c(Cl)nc(Br)n2-c2ccc(Cl)cc2)c1F [compound 512] | 99 | 98 | 79 | 98 | 40 | 97 | 0 | – | – | – | – | – | – | –
COc1cc(F)c(-c2c(Cl)nc(Cl)n2-c2cccnc2Cl)c(F)c1 [compound 513] | 100 | 100 | 100 | 100 | 100 | 99 | 100 | – | – | – | – | – | – | –
COc1cc(F)c(-c2c(Cl)nc(Cl)n2-c2ccc(Cl)nc2OC)c(F)c1 [compound 514] | 99 | 100 | 93 | 99 | 0 | 99 | 73 | – | – | – | – | – | – | –
COc1cc(F)c(-c2c(Cl)nc(Cl)n2-c2ccc(OC)nc2Cl)c(F)c1 [compound 515] | 100 | 100 | 100 | 99 | 100 | 97 | 0 | – | – | – | – | – | – | –
